Assays:
[1] = tested on: protein phosphatase-2B; assay: Protein phosphatase-2B assay; assay type: biochemical, pig; settings: various concentrations
Experimental: Protein phosphatase-1 (squares), protein phosphatase-2A1 (circles), protein phosphatase-2B (triangles) and protein phosphatase-2C (stars) were assayed in the presence of various concentrations of HIV-1 Vpr^71-96. 100 percent protein phosphatase activity is equivalent to 0.005 unit. Similar results were obtained in 3 independent experiments.
^32P-labeled phosphorylase a was prepared by phosphorylation of phosphorylase b with phosphorylase kinase as described in (Cohen 1988). ^32P-labeled casein was prepared by phosphorylation of casein with protein kinase A as described in (Tung 1986). Protein phosphatase-1 was purified from rabbit skeletal muscle as described in (Cohen 1988). Protein phosphatase-1 inhibitor-2 was purified from rabbit skeletal muscle as described in (Yang 1981). Protein phosphatase-2A0 and protein phosphatase-2A1 from pig brain and from pig liver were purified as described in (Tung 1985). Protein phosphatase-2A0 and protein phosphatase-2A1 from pig adipose tissue were highly purified by successive chromatography of pig subcutaneous adipose tissue extracts on DEAE Sepharose, Poly-L-lysine Agarose, Sephacryl S-300 HR and thiophosphorylase-a-Sepharose-4B as described in (Tung 1985). Protein phosphatase-2B was purified from pig brain as described in (Tung 1986). […]

[2] = molecular target: protein phosphatase-2A1 (Homo sapiens, UniProt P67775); assay: Assay of purified protein phosphatase-2A1 in vitro with 32P-labeled phosphorylase a as substrate; assay type: biochemical; design: Protein phosphatase-2A1 purified from CD^4+ T cells as described in materials and method; endogenous in cells; host or cells: Jurkat cells; enzyme purified by DEAE Sepharose, Sephacryl S-300 HR and poly-L-lysine Agarose; settings: purified enzyme from Jurkat cells, in vitro
Experimental: Protein phosphatase-2A1 purified from CD^4+ T cells as described in materials and method was assayed in the presence of various concentrations of SYRAPRO-2000. 100 percent protein phosphatase-2A1 activity is equivalent to 0.005 unit. Similar result were obtained in 3 independent experiments.
The effect of synthesized SYRAPRO-2000 on purified protein phosphatase-2A1 can be determined in vitro. Protein phosphatase-2A1 can be assayed using ^32P-labeled phosphorylase a as substrate in the presence of various concentrations of SYRAPRO-2000. Protein phosphatase-2A1 is activated in the presence of SYRAPRO-2000.
Protein phosphatase-1 was assayed as described in (Cohen 1988). Protein phosphatase-2B was assayed as described in (Tung 1986). Protein phosphatase-2C was assayed as described in (Tung 1986) except Ca^2+ and calmodulin were omitted. The assay of protein phosphatases-2A1 consisted of 0.02 ml of enzyme solution in 50 mM Imidazole-Cl pH 7.2, 0.2 mM EGTA, 0.1% (v/v) 2-mercaptoethanol and 1 mg/ml bovine serum albumin (Assay Buffer), 0.01 ml of inhibitor-2 at 600 nM in Assay Buffer, 0.01 ml of protamine at 60 μg/ml in Assay Buffer or 0.01 ml of SYRAPRO-2000 at different concentrations in Assay Buffer or 0.01 ml of Assay Buffer alone, 0.02 ml of ^32P-labeled phosphorylase a at 3 mg/ml in Assay Buffer containing 15 mM caffeine. The assay components were preincubated for 10 minutes prior to initiating the reaction with ^32P-labeled phosphorylase a. One unit of protein phosphatase activity is that amount of enzyme which catalyzes the release of 1 nmol of phosphate from ^32P-labeled substrate per min at 30° C.
Jurkat cells, a human transformed CD^4+ T cell line, were grown in grown in RPMI 1680 supplemented with 5% (v/v) fetal bovine serum at 37° C. in 95% air/5% CO2 in a humidified incubator. 2.4 liters of cells were collected by centrifugation at 4200 rpm in a low speed centrifuge for 10 minutes. The cells were homogenized in 80 ml of 50 mM Imidazole-Cl pH 7.2, 2 mM EGTA, 2 mM EDTA, 0.1% (v/v) 2-mercaptoethanol, 0.2 mM PMSF, 1 mM benzamidine, 4 μg/ml aprotinin, 4 μg/ml leupeptin, 4 μg/ml pepstatin, 0.1 mM TLCK, 0.1 mM TPCK, 1 mM sodium orthovanadate and 10% (v/v) glycerol by 40 strokes in a glass hand held homogenizer. The homogenate was centrifuged at 29000 rpm in a high speed centrifuge for 30 minutes. The supernatant (i.e the extract) was collected and loaded onto a DEAE Sepharose column (1.5×6 cm) equilibrated in 25 mM Imidazole-Cl pH 7.2, 0.2 mM EGTA, 0.1% (v/v) 2-mercaptoethanol, 0.1 mM PMSF, 1 mM benzamidine and 10% (v/v) glycerol (Buffer A). The column was washed with 50 ml of Buffer and then eluted with a 200 ml linear gradient of Buffer A to Buffer A plus 0.4 M NaCl. The eluted fractions were then assayed for phosphorylase phosphatase activity in the presence of 100 nM inhibitor-2 and 10 μg/ml of protamine. Two major peaks of phosphorylase phosphatase were observed. The first and second peak represent protein phosphatase-2A0 and protein phosphatase-2A1 respectively. […] The major activity eluting as a species of apparent molecular mass 300 kDa was collected, diluted four fold in Buffer A and loaded onto a poly-L-lysine Agarose Column (1.5×4 cm) equilibrated in Buffer A. The column was washed with 50 ml of Buffer A and then eluted with a 200 ml linear gradient of Buffer A to Buffer A plus 0.5 M NaCl. The active fractions eluting at ˜0.30 M NaCl salt concentration was pooled, concentrated by vacuum dialysis and stored at ^−20° C. in 50 mM Imidazole-Cl pH 7.2, 0.2 mM EGTA in the presence of 50% (v/v) glycerol. The highly purified enzyme consisted of the characteristic subunits of protein phosphatase-2A1, namely the A, B and C subunits. […] It is difficult to determine the activity of protein phosphatase-2A1 in CD^4+ T cell extract. However, assuming that it represented about 66 percent of total type 2A protein phosphatase activity in CD^4+ T cell extract, the specific activity of the enzyme in extract was estimated to be 0.3 unit/mg. […]

Chain of protein phosphatase-2A1 (P67775 whole entry): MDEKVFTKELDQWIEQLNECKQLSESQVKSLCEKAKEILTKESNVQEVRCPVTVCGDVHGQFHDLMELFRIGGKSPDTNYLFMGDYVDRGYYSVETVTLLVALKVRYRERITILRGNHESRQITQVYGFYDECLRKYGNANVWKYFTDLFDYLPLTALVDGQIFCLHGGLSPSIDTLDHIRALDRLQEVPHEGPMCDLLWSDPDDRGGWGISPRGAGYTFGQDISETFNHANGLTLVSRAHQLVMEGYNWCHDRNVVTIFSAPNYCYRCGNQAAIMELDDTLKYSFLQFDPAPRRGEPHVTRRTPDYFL
Chain of protein phosphatase-2A1 (P30153 whole entry partner): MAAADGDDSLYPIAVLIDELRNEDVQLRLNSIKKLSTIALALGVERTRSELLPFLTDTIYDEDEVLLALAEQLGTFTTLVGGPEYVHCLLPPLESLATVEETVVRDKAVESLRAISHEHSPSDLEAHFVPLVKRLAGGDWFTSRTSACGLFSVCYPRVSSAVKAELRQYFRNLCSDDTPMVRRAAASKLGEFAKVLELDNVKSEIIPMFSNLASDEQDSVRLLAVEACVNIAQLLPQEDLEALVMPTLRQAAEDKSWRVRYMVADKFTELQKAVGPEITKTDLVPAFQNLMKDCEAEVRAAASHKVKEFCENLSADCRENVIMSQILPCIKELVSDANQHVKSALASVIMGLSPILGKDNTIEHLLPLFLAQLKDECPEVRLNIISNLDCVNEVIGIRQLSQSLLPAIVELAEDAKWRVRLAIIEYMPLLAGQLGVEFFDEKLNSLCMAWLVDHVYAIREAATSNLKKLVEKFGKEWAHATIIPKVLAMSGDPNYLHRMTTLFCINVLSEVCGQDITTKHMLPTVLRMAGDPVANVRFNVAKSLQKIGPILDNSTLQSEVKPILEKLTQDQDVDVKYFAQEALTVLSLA
Chain of protein phosphatase-2A1 (P63151 whole entry partner): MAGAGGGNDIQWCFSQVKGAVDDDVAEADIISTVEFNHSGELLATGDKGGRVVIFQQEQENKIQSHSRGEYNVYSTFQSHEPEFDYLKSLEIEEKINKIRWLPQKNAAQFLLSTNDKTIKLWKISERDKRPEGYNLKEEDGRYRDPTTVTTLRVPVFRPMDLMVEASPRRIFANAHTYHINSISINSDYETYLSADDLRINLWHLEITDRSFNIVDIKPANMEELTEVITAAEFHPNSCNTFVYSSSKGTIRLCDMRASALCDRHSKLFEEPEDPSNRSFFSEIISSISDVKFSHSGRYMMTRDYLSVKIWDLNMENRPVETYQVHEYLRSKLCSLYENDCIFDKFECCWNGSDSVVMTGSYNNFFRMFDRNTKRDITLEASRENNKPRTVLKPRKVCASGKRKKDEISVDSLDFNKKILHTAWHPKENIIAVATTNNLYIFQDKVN

CC[C@H](C)[C@H](NC(=O)[C@H](CCCNC(=N)N)NC(=O)[C@H](CO)NC(=O)[C@H](Cc1c[nH]cn1)NC(=O)[C@H](CCCNC(=N)N)NC(=O)[C@H](CS)NC(=O)CNC(=O)[C@@H](NC(=O)[C@H](CCCNC(=N)N)NC(=O)[C@H](Cc1ccccc1)NC(=O)[C@@H](N)Cc1c[nH]cn1)[C@@H](C)CC)C(=O)NCC(=O)N[C@H](C(=O)N[C@H](C(=O)N[C@@H](CCCNC(=N)N)C(=O)N[C@@H](CCC(N)=O)C(=O)N[C@@H](CCCNC(=N)N)C(=O)N[C@@H](CCCNC(=N)N)C(=O)N[C@@H](C)C(=O)N[C@@H](CCCNC(=N)N)C(=O)N[C@@H](CC(N)=O)C(=O)NCC(=O)N[C@@H](C)C(=O)N[C@@H](CO)C(=O)N[C@@H](CCCNC(=N)N)C(=O)N[C@@H](CO)C(=O)O)[C@@H](C)O)C(C)C [SYRAPRO-2000]
effect on activity of protein phosphatase-2B [1]: negligible effect | activation of protein phosphatase-2A1 [2]: 7 fold | concentration above which there was inhibition of protein phosphatase-2A1 (biphasic effect) [2]: above 1000 nM | EC50 ([2]; read-out: half maximal activation of protein phosphatase-2A1): ~300 nM

Reference: US20060252683A1, “Preparation of a peptide compound (SYRAPRO-2000) and its use for the activation of protein phosphatase-2A1 enzyme” (priority 2005, published 2006)
